Laboratory results as given in US20260207572A1, “METHODS AND COMPOSITIONS FOR TREATMENT OF SUBJECTS WITH HEPATIC IMPAIRMENTS” (ELEVAR THERAPEUTICS, INC., priority 2022, published 2026).
Read-outs that look alike come from different tables or passages of the source.

How the values were obtained:
plasma protein = assay: Phase 1 study: unbound plasma concentration and fraction unbound (protein binding); format: in vivo, human; conditions: 4 h, 200 mg single oral dose; for fraction unbound at 4 h: human, plasma, po, 200 mg, read-out: Fraction Unbound, Arithmetic Mean
[1] = as above; format: in vivo, human; conditions: human, plasma, po, 200 mg, 200 mg single oral dose
[2] = Mild Hepatic Impairment, read-out: Fraction Unbound, Geometric Mean
[3] = Mild Hepatic Impairment, read-out: Fraction Unbound, Median
[4] = Mild Hepatic Impairment, read-out: Unbound Concentration, Arithmetic Mean
[5] = Mild Hepatic Impairment, read-out: Unbound Concentration, Geometric Mean
[6] = Mild Hepatic Impairment, read-out: Unbound Concentration, Median
[7] = Moderate Hepatic Impairment, read-out: Fraction Unbound, Geometric Mean
[8] = Moderate Hepatic Impairment, read-out: Fraction Unbound, Median
[9] = Moderate Hepatic Impairment, read-out: Unbound Concentration, Arithmetic Mean
[10] = Moderate Hepatic Impairment, read-out: Unbound Concentration, Geometric Mean
[11] = Moderate Hepatic Impairment, read-out: Unbound Concentration, Median
[12] = Normal Hepatic Function, read-out: Fraction Unbound, Geometric Mean
[13] = Normal Hepatic Function, read-out: Fraction Unbound, Median
[14] = Normal Hepatic Function, read-out: Unbound Concentration, Arithmetic Mean
[15] = Normal Hepatic Function, read-out: Unbound Concentration, Geometric Mean
[16] = Normal Hepatic Function, read-out: Unbound Concentration, Median

N#CC1(c2ccc(NC(=O)c3cccnc3NCc3ccncc3)cc2)CCCC1 [Rivoceranib, N-[4-(1-cyanocyclopentyl)phenyl]-2-{[(pyridin-4-yl)methyl]amino} pyridine-3-carboxamide]
Fraction Unbound, Arithmetic Mean (plasma protein; Mild Hepatic Impairment): 2.39%
fraction unbound at 4 h (plasma protein; Mild Hepatic Impairment): 0.0239 ± 0.00639
fraction unbound at 4 h (plasma protein; Moderate Hepatic Impairment): 0.0425 ± 0.022
fraction unbound at 4 h (plasma protein; Normal Hepatic Function): 0.0265 ± 0.0119
fraction unbound at 4 h [1, 2]: 0.0232
fraction unbound at 4 h [1, 3]: 0.0232
concentration at 4 h [1, 4]: 3.78 ng/mL
concentration at 4 h [1, 5]: 2.59 ng/mL
concentration at 4 h [1, 6]: 2.37 ng/mL
fraction unbound at 24 h ([1]; Mild Hepatic Impairment, read-out: Fraction Unbound, Arithmetic Mean): 0.0201
fraction unbound at 24 h [1, 2]: 0.0191
fraction unbound at 24 h [1, 3]: 0.0174
concentration at 24 h [1, 4]: 0.63 ng/mL
concentration at 24 h [1, 5]: 0.55 ng/mL
concentration at 24 h [1, 6]: 0.65 ng/mL
fraction unbound at 4 h [1, 7]: 0.0373
fraction unbound at 4 h [1, 8]: 0.0419
concentration at 4 h [1, 9]: 4.73 ng/mL
concentration at 4 h [1, 10]: 4.52 ng/mL
concentration at 4 h [1, 11]: 4.15 ng/mL
fraction unbound at 24 h ([1]; Moderate Hepatic Impairment, read-out: Fraction Unbound, Arithmetic Mean): 0.022
fraction unbound at 24 h [1, 7]: 0.021
fraction unbound at 24 h [1, 8]: 0.021
concentration at 24 h [1, 9]: 1.07 ng/mL
concentration at 24 h [1, 10]: 0.82 ng/mL
concentration at 24 h [1, 11]: 0.82 ng/mL
fraction unbound at 4 h [1, 12]: 0.0243
fraction unbound at 4 h [1, 13]: 0.0212
concentration at 4 h [1, 14]: 4.44 ng/mL
concentration at 4 h [1, 15]: 3.62 ng/mL
concentration at 4 h [1, 16]: 3.76 ng/mL
fraction unbound at 24 h ([1]; Normal Hepatic Function, read-out: Fraction Unbound, Arithmetic Mean): 0.0172
fraction unbound at 24 h [1, 12]: 0.0168
fraction unbound at 24 h [1, 13]: 0.0155
concentration at 24 h [1, 14]: 0.73 ng/mL
concentration at 24 h [1, 15]: 0.68 ng/mL
concentration at 24 h [1, 16]: 0.69 ng/mL
